Legend:
Assay type in all cases: cell-based
[1] = tested on: MDA-MB-435 cells; experiment: In vitro tumor cell growth inhibition (cytotoxicity assay), breast cancer cell line; conditions: MDA-MB-435 breast cancer cells
Procedure: (§1) Cytotoxicity may be measured using a standard methodology for adherent cell lines such as the microculture tetrazolium assay (MTT). Details of this assay have been published (Alley, M C et al, Cancer Research 48:589-601, 1988). Exponentially growing cultures of tumor cells such as the HT-29 colon carcinoma or LX-1 lung tumor can be used to make microtiter plate cultures. Cells can be seeded at 5000-20,000 cells per well in 96-well plates (in 150 μl of media), and grown overnight at 37° C. Test compounds are added, in 10-fold dilutions varying from 10^−4 M to 10^−10 M.
(§2) Cells are then incubated for 48-72 hours. To determine the number of viable cells in each well, the MTT dye is added (50 μl of 3 mg/ml solution of 3-(4,5-dimethylthiazol-2-yl)-2,5-diphenyltetrazolium bromide in saline). This mixture is incubated at 37° C. for 5 hours, and then 50 μl of 25% SDS, pH 2 is added to each well. After an overnight incubation, the absorbance of each well at 550 mn is read using an ELISA reader. The values for the mean+/−SD of data from quadruplicate wells are calculated, using standard formula as for the %T/C (%viable cells treated/control). Additional methods as described by Inhibition of the growth of tumor cells was determined as described by Patil, S. D., et al J. Med. Chem., 32, 1284 (1989) may be used as well.
(§3) The concentration of test compound which gives a T/C of 50% growth inhibition is designated as the IC50.
(§4) Typically, the cells are grown in RPMI 1640 medium supplemented with 10 nM calcium leucovorin instead of folic acid as the folate source, 10% dialyzed fetal calf serum, penicillin and streptomycin. Additional ingredients may be added depending on the particular needs of the cells being cultured. […]
(§5) Cells are seeded into 96-well plates using a pipeting mechanism such as Perkin-Elmer Pro/pette. […] Inhibition of cell growth may be measured using the MTT dye reduction assay as described above.

[2] = tested on: OVCAR-4 ovarian carcinoma cell lines; experiment: In vitro tumor cell growth inhibition (cytotoxicity assay), ovarian carcinoma cell line; conditions: OVCAR-4 ovarian carcinoma cells
Procedure: as §1, §2, §3, §4, §5

[3] = tested on: CAKI-1 renal cancer cell lines; experiment: In vitro tumor cell growth inhibition (cytotoxicity assay), renal cancer cell line; conditions: CAKI-1 renal cancer cells
Procedure: as §1, §2, §3, §4, §5

[4] = tested on: KM12 colon cancer cell lines; experiment: In vitro tumor cell growth inhibition (cytotoxicity assay), colon cancer cell line; conditions: KM12 colon cancer cells
Procedure: as §1, §2, §3, §4, §5

[5] = Homo sapiens, read-out: LC50 (the source's name)

Cl.OCC1OC(NCCNCCNC2OC(CO)C(O)C(O)C2O)C(O)C(O)C1O [Compound 1, 1,3-N,N-di-β-D-glucopyranosyl-diethylenetriamine]
GI50 ([1]; Homo sapiens, read-out: GI50 (inhibited growth by 50%)): 1.72 µM | LC50 ([1]; Homo sapiens, read-out: LC50 (lethal concentration to kill 50% of the cells)): ~6 µM | Total growth inhibition (TGI) [1]: 3.23 µM | GI50 ([2]; Homo sapiens): 1.63 µM | CC50 [2, 5]: ~7.7 µM | TGI [2]: about 3.5 μM | TGI [3]: about 10 μM | GI50 ([3]; Homo sapiens): 3.1 µM | CC50 [3, 5]: 30 µM | GI50 ([4]; Homo sapiens): ~10 µM | CC50 [4, 5]: ~48 µM | TGI [4]: about 22 μM

— US6531454B1, “Glycosylated polyamines and methods of use therefor” (The Regents of the University of California, priority 1999, dated 2003)
